PubChem BioAssay (NCI)
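Compound exposure: 48 hours, 5 concentrations, 96-well plates. The concentration for full growth arrest is given as TGI.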

Tested on: SN12K1 renal
Assay: DTP human tumour cell line panel, 48 h

SMILES: O=C1C(=O)c2ccccc2C(O)=C1CC=C(Cl)Cl
- TGI: 113 µM
